Results from patent publication US20100166806A1, “Combination therapy comprising the use of protein kinase C modulators and Histone Deacetylase inhibitors for treating HIV-1 latency” (Aphios Corporation, priority 2008, published 2010).
“Also recorded” adds a separate entry of the source.

Legend:
[1] = tested on: bryostatin-1-induced HIV-1 reactivation in Jurkat-LAT-GFP cells; test: Effect of PKC/MEK inhibitors on bryostatin-1-induced GFP expression in Jurkat-LAT-GFP cells; type: cell-based; settings: Jurkat-LAT-GFP cells preincubated with inhibitor, then bryostatin-1 (10 nM) 6 h
Procedure: The primary interest in Bryostatins has been initiated by recognition of the potent antiproliferative effects against various tumour cells. Such effects have been related to the ability of Bryo-1 to modulate protein kinase C (PKC) activity by activating or degrading certain isoforms of PKC. Since PKC activation mediates different signal pathways that in turn activate the transcription of latent HIV-1, we preincubated Jurkat-LAT-GFP cells with medium or the chemical inhibitors Gö6976 (classical PKCs inhibitor), Gö66850 (classical and novel PKCs inhibitor), Gö6983 (pan-PKC inhibitor), rottlerin (PKCδ inhibitor) and PD98059 (MEK inhibitor) at effective concentrations.
Jurkat LAT-GFP cells were pretreated with the indicated inhibitors for 30 min at the indicated dose, and then stimulated with bryostatin-1 (10 nM) for 6 h. The percentage of GFP+ cells was measured by flow cytometry. Results, shown in FIG. 9, are represented as percentage of activation compared to cells treated with agonists in the absence of the chemical inhibitors (100% activation). The chemical inhibitors Gö6976 (classical PKCs inhibitor), Gö6850 (classical and novel PKCs inhibitor), Gö6983 (pan-PKC inhibitor), rottlerin (PKCδ inhibitor) and PD98059 (MEK inhibitor) were used at the indicated concentrations.

[2] = tested on: HIV-1 latency in Jurkat-LAT-GFP cells; test: HIV-1 reactivation in Jurkat-LAT-GFP cells (percentage of GFP+ cells by flow cytometry); type: cell-based; settings: for HIV-1 reactivation: 10 nM
CD4 = test: Cell surface expression of CD4 on MT-2 cells by flow cytometry; type: cell-based, human
Procedure: (§1) This effect, shown in FIG. 12, is mediated though a PKC-dependent pathway and is not affected by the presence of VPA. MT-2 cells were treated with 10 nM of bryostatin in the presence or absence of either the PKC inhibitor Gö6850 or the HDAC inhibitor VPA for 24 h and the expression of CD4 and CXCR4 analysed. Cell surface expression of CD4 and CXCR4 antigens were measured by direct fluorescence using specific mAbs and analyzed by flow cytometry in an EPIC XL flow cytometer (Beckman-Coulter Inc. CA, USA). The anti-CXCR4 (clone 12G5, PE-labeled) was from BD Biosciences Pharmigen (San Diego, Calif., USA). The mAb anti-CD4 (clone 6D10, FITC-labelled) was from ImmunoTools (Friesoythe, Del.). Dual-Color Reagent Mouse IgG1/FITC+ Mouse IgG1/PE from DAKO (clone DAK-GO1 directed towards Aspergillus niger glucose oxidase) was used as negative control.

[3] = tested on: HIV-1 latent infected cells; settings: three of four patients; VPA 500-750 mg twice a day; cited from earlier work
CXCR4 = test: Cell surface expression of CXCR4 on MT-2 cells by flow cytometry; type: cell-based, human
Procedure: as §1

IκBα = test: Western blot of IκBα phosphorylation and degradation (NF-κB pathway) in Jurkat-LAT-GFP cells; type: cell-based
Procedure: (§2) Jurkat-LAT-GFP cells were stimulated with increasing concentrations of bryostatin-1 and the phosphorylation and degradation of the NF-κB inhibitor Iκbα, and the phosphorylation (activation) of the MAPKs, ERK and JNK, were investigated by western blots using specific mAbs.
(§3) Jurkat LAT-GFP cells were incubated with either bryostatin-1 (1, 10, 25, 50 and 100 nM) or with prostratin (0.01, 0.05, 0.1, 0.5, 1 and 10 μM) for 10 min. IκBα phosphorylation and degradation, the phosphorylation status of MAPKs ERK 1+2 and JNK 1+2, and the steady state levels of total ERK 1+2 were analyzed using specific antibodies by western blots. Control and treated cells were washed with PBS and proteins extracted in 50 μl of lysis buffer (20 mM Hepes pH 8.0, 10 mM KCl, 0.15 mM EGTA, 0.15 mM EDTA, 0.5 mM Na3VO4, 5 mM NaFl, 1 mM DTT, leupeptin 1 μg/ml, pepstatin 0.5 μg/ml, aprotinin 0.5 μg/ml, and 1 mM PMSF) containing 0.5% NP-40. Protein concentration was determined by the Bradford assay (Bio-Rad, Richmond, Calif., USA) and thirty μg of proteins were boiled in Laemmli buffer and electrophoresed in 10% SDS/polyacrylamide gels. Separated proteins were transferred to nitrocellulose membranes (0.5 A at 100 V; 4° C.) for 1 h. […]

MAPKs ERK1+2 and JNK1+2 = test: Western blot of phosphorylation (activation) of MAPKs ERK and JNK in Jurkat-LAT-GFP cells; type: cell-based
Procedure: as §2, §3

HIVIIIB variant of HIV-1 = test: Virus-induced cytotoxicity assay (HIV-1-induced cell death in CEM-SS cells, XTT); type: cell-based
Procedure: The human T-lymphoblastic cell line CEM-SS was used as the target cell line and virus infections were performed using the HIVIIIB variant of HIV-1 (FIG. 13). Briefly, increasing concentrations of bryostatins (1, 2, 3 and AB) or 3TC (a known inhibitor of HIV RT) were incubated with 5,000 CEM-SS cells and HIVIIIB in a final volume of 200 μl/well at 37° C. for 6 days. After 6 days, 50 μl/well of XTT dye was added and the plate incubated for 4 hours at 37° C. The plate was then read at 450 nm with a reference at 630 nm and the percent CPE, percent inhibition, percent toxicity, effective concentration 50 (EC50), cytotoxic concentration (CC50) and the selective index (CC50/EC50) were calculated. Plates contained the following controls: media, cellular and viral.

[4] = cited from earlier work
[5] = MT-2 cells, 10 nM bryostatin, 24 h
[6] = increasing concentrations of bryostatin-1

In the case of CN(C)CCCn1cc(C2=C(c3c[nH]c4ccccc34)C(=O)NC2=O)c2ccccc21 [Gö6850], the “Inhibition of GFP expression induced by Bryostatin-1” value (from here on “Inhibition of GFP expression induced”) [1] is reported as “strongly inhibited”.
For Cn1c2ccccc2c2c3c(c4c5ccccc5n(CCC#N)c4c21)CNC3=O [Gö6976], the “Inhibition of GFP expression induced” value [1] was “strongly inhibited”.
In the case of COc1ccc2c(c1)c(C1=C(c3c[nH]c4ccccc34)C(=O)NC1=O)cn2CCCN(C)C [Gö6983], the “Inhibition of GFP expression induced” value [1] is reported as “strongly inhibited”.
In the case of COc1cccc(-c2cc(=O)c3ccccc3o2)c1N [PD98059], the “Inhibition of GFP expression induced” value [1] is reported as “partially inhibited”.
With CC(/C=C/C(=O)NO)=C\[C@@H](C)C(=O)c1ccc(N(C)C)cc1 [TSA, trichostatin A, reference compound] the “Synergy with bryostatin-1 to antagonise HIV-1 latency” value [2] was “synergises”.
For CCCC(CCC)C(=O)O [Valproic acid, valproic acid, reference compound], the “Effect of VPA on bryostatin-induced CD4 downregulation” value (CD4; [5]) is listed as “not affected”, the “Depletion of HIV-1 latent infected cells in patients” value [3] is listed as “significant depletion” and the “Effect of VPA on bryostatin-induced CXCR4 downregulation” value (CXCR4; [5]) is listed as “not affected”. The “Synergy with bryostatin-1 to antagonise HIV-1 latency” value [2] was “synergises”.
With CCC/C=C/C=C/C(=O)O[C@H]1/C(=C/C(=O)OC)C[C@H]2C[C@H]([C@@H](C)O)OC(=O)C[C@H](O)C[C@@H]3C[C@H](OC(C)=O)C(C)(C)[C@](O)(C[C@@H]4C/C(=C/C(=O)OC)C[C@H](/C=C/C(C)(C)[C@]1(O)O2)O4)O3 [bryostatin-1] the “IκBα phosphorylation and degradation” value (IκBα; 10 nM) was “does not induce”, the “Phosphorylation and degradation of IκBα” value (IκBα; [6]) was “induced phosphorylation and degradation” and the “Expression of HIV-1 receptor CD4” value (CD4; 10 nM) was “downregulates”. The JNK activation (MAPKs ERK1+2 and JNK1+2; 10 nM) was “does not induce”, the “Activation of the MAPKs ERK1+2 and JNK1+2” value (MAPKs ERK1+2 and JNK1+2; [6]) was “in a concentration dependent manner” and the “Expression of HIV-1 receptor CXCR4” value (CXCR4; 10 nM) was “downregulates”. The EC50 (HIVIIIB variant of HIV-1) was 26 nM, the “HIV-1 reactivation in the presence of valproic acid” value [2] was “can induce HIV-1 reactivation” and the HIV-1 reactivation ([2]; Jurkat-LAT-GFP cells) was “strongly induce HIV-1 reactivation; also recorded: fully reactivates HIV-1 latency”. For the same molecule, the “Potency to antagonize HIV-1 latency relative to prostratin” value ([2]; Jurkat-LAT-GFP cells, 6 h, versus prostratin) was 100 Fold, the “HIV-1 reactivation (GFP+ cells)” value ([2]; bryostatin-1 100 nM, Jurkat-LAT-GFP cells) was 87 % of GFP+ cells and the “Reduction of the bryostatin-1 concentration allowed by HDACs inhibitors” value ([2]; in combination with HDACs inhibitors) was “at least one order of magnitude”. The “Tissue accumulation after i.v. injection” value [4] was “accumulated in several tissues including lymph nodes and the gastrointestinal tract”.
For CCC/C=C/C=C/C(=O)O[C@H]1[C@H]2C=C3C[C@H]([C@@H](C)O)OC(=O)C[C@H](O)C[C@@H]4C[C@H](OC(C)=O)C(C)(C)[C@](O)(C[C@@H]5C/C(=C\C(=O)OC)C[C@H](/C=C/C(C)(C)[C@]1(OC(=O)C2)O3)O5)O4 [bryostatin-3], the HIV-1 reactivation ([2]; Jurkat-LAT-GFP cells) was “strongly induce HIV-1 reactivation”.
For CC(=O)c1c(O)c(C)c(O)c(Cc2c(O)c3c(c(C(=O)/C=C/c4ccccc4)c2O)OC(C)(C)C=C3)c1O [rottlerin], the “Inhibition of GFP expression induced” value [1] was “did not affect”.
For bryostatin-2, the HIV-1 reactivation ([2]; Jurkat-LAT-GFP cells) was “strongly induce HIV-1 reactivation”.
